Results: US20250382640A1, “LIPID NANOPARTICLES FOR DELIVERY OF NUCLEIC ACIDS” (Juno Therapeutics, Inc., priority 2022, published 2025)
“Also recorded” adds a separate entry of the source.

How the values were obtained:
primary human T cells = assay: Transient transfection of activated primary human T cells with DNA LNPs, GFP expression by flow cytometry; format: cell-based
Method: Separate compositions of CD4+ and CD8+ cells were selected by immunoaffinity-based enrichment from isolated PBMCs from leukapheresis samples from four healthy human donors. The selected cell compositions were cryopreserved, subsequently thawed and combined in culture at a 1:1 ratio of viable CD4+ to viable CD8+ cells. The combined CD4+ and CD8+ cell composition was then incubated for 48 hours with anti-CD3/CD28 beads (1:1 cell-to-bead ratio) in media containing recombinant IL-2, IL-7, and IL-15 to activate (stimulate) the T cells. […] The cells were cultured in media supplemented with 1 μg/mL of apolipoprotein E4 (ApoE4) to support cellular uptake of the LNPs.
Cells were analyzed by flow cytometry 24 to 48 hours after transfection to determine cell viability and transient GFP expression. Cell viability was determined by quantification of dead cells using SYTOX™ blue dead cell stain and GFP expression was determined via flow cytometry.
Formulations as described in Table E4 were used to transiently transfect human T cells at a 6.0 μg/mL DNA dosing concentration (final concentration with cells), and the effects of varying the described parameters on cell viability and transfection efficiency of T cells were assessed. A combined CD4+ and CD8+ T cell composition was generated and activated substantially as described in Example 2, and incubated in media with […] ApoE4 and LNPs generated from the various formulations for approximately 24 hours at 37° Celsius, 5% CO2, to allow for transfection. Following incubation, cells were assessed for viability and transfection efficiency as described in Example 2. Increasing ionizable lipid mass fraction percentage decreased transfection efficiency (p<0.05; left panel of FIGS. 6A), while there was no statistically significant effect of helper lipid or PEG lipid mass fraction percentage on transfection efficiency (middle and right panels, respectively, of FIG. 6A).

[1] = DNA loading into LNPs, Quant-iT PicoGreen dsDNA assay; format: physicochemical; settings: Example 4a, Table E14 formulations
Method: The resulting LNPs were sized by dynamic light scattering (DLS) before being stored overnight at 5 Celsius. Following overnight incubation, the LNPs were again sized by DLS, and then sterile filtered in a biosafety cabinet. LNPs having an Z-average particle size greater than 200 nm in diameter were filtered using a 0.45 µm filter. All other LNPs were filtered using a 0.2 µm filter. Following sterile filtration, the LNPs were sized a final time by DLS. The LNPs were also assessed for DNA loading, as determined by the Quant-iT™ PicoGreen™ dsDNA broad range DNA assay. Percent DNA loading was calculated as 100×(signal of sample with Triton-X−signal of sample in DI water)/(signal of sample with Triton-X).

DNA loading [1] | Structure (SMILES) | transfection efficiency (primary human T cells; Example 4a, alkyl chain linker length, Table E14 formulations) | transfection efficiency (primary human T cells; Example 4b, heterocyclic headgroup, Table E16 formulations) | transient transfection in T cells (GFP expression) (primary human T cells; F9 and F9A formulations with various ionizable lipids, 24 hours)
consistently high DNA loading | CCCCC/C=C\C/C=C\CCCCCCCCC1(CCCCCCCC/C=C\C/C=C\CCCCC)OCC(CCN(C)C)O1 (stereo not shown) [DLin-KC2-DMA, 2,2-dilinoleyl-4-dimethylaminoethyl-[1,3]-dioxolane] | higher transfection efficiency compared to the other lipids; also recorded: highest transfection efficiency | highest | 
 | CCCCC/C=C\C/C=C\CCCCCCCC(=O)OCCCCN(CCCCOC(=O)CCCCCCC/C=C\C/C=C\CCCCC)CCCCC1NC(=O)C(CCCCN(CCCCOC(=O)CCCCCCC/C=C\C/C=C\CCCCC)CCCCOC(=O)CCCCCCC/C=C\C/C=C\CCCCC)NC1=O (stereo not shown) [OF-C4-Deg-Lin] |  |  | highest levels of transient transfection
